Results: ChEMBL document CHEMBL1150212, “Antitumor agents, 129. Tannins and related compounds as selective cytotoxic agents” (1992)
*1 amine or outer side, *2 acyl side, *3 side chain or, on linkers, in order; H or OH if unused. Where a SMILES comes first, the peptide text is derived from it. Bridges are numbered along the chain shown (N, C = ends). Roman numbers before positions name the chains, in order. [ ]: non-standard residue; d: D form. Actinocin(1to9) = Cc1c2oc3c(C)ccc(C(=O)[*:2])c3nc-2c(C(=O)[*:1])c(N)c1=O; NMeV = CN[C@H](C(=O)O)C(C)C; Sar = CNCC(=O)O

How the values were obtained:
Format in all cases: functional
Details in all cases: read-out: ED50 (the source's name)
[1] = test system: HCT-8; experiment: Cytotoxicity against human HCT8 cells by tetrazolium salt-based colorimetric assay
[2] = Cytotoxicity against human […] cells by tetrazolium salt-based colorimetric assay
[3] = test system: TE-671; experiment: Cytotoxicity against human TE671 cells by tetrazolium salt-based colorimetric assay
[4] = test system: KB; experiment: Cytotoxicity against human KB cells by tetrazolium salt-based colorimetric assay
[5] = test system: A549; experiment: Cytotoxicity against human A549 cells by tetrazolium salt-based colorimetric assay

SMILES	EC50 [1]	EC50 [2]	EC50 [3]	EC50 [4]	EC50 [5]
O=C(O[C@@H]1[C@@H](c2c(O)cc(O)c3c2O[C@H](c2ccc(O)c(O)c2)[C@H](OC(=O)c2cc(O)c(O)c(O)c2)C3)c2c(O)cc(O)c([C@H]3c4c(O)cc(O)cc4O[C@H](c4ccc(O)c(O)c4)[C@@H]3OC(=O)c3cc(O)c(O)c(O)c3)c2O[C@@H]1c1ccc(O)c(O)c1)c1cc(O)c(O)c(O)c1	> 10 µg/mL	3.05 µg/mL	> 10 µg/mL	> 10 µg/mL	> 10 µg/mL
O=C(O)C1=C[C@@H](O)[C@@H](O)[C@H](OC(=O)c2cc(O)c(O)c(O)c2)C1	> 10 µg/mL	> 10 µg/mL	> 10 µg/mL	> 10 µg/mL	> 10 µg/mL
O=C(O[C@H]1[C@H](O)C[C@](OC(=O)c2cc(O)c(O)c(O)c2)(C(=O)O)C[C@H]1OC(=O)c1cc(O)c(O)c(O)c1)c1cc(O)c(O)c(O)c1	> 10 µg/mL	> 10 µg/mL	> 10 µg/mL	> 10 µg/mL	> 10 µg/mL
O=C(O[C@@H]1C[C@](O)(C(=O)O)C[C@@H](OC(=O)c2cc(O)c(O)c(O)c2)[C@H]1OC(=O)c1cc(O)c(O)c(O)c1)c1cc(O)c(O)c(O)c1	> 10 µg/mL	> 10 µg/mL	> 10 µg/mL	> 10 µg/mL	> 10 µg/mL
O=C(O[C@@H]1C[C@](OC(=O)c2cc(O)c(O)c(O)c2)(C(=O)O)C[C@@H](OC(=O)c2cc(O)c(O)c(O)c2)[C@H]1OC(=O)c1cc(O)c(O)c(O)c1)c1cc(O)c(O)c(O)c1	> 10 µg/mL	0.43 µg/mL	> 10 µg/mL	> 10 µg/mL	> 10 µg/mL
O=C(O)C1=C[C@@H](O)[C@@H](O)[C@H](OC(=O)c2cc(O)c(O)c(OC(=O)c3cc(O)c(O)c(O)c3)c2)C1	> 10 µg/mL	> 10 µg/mL	> 10 µg/mL	> 10 µg/mL	> 10 µg/mL
O=C(O[C@@H]1[C@@H](c2c(O)cc(O)c3c2O[C@H](c2ccc(O)c(O)c2)[C@H](OC(=O)c2cc(O)c(O)c(O)c2)C3)c2c(O)cc(O)cc2O[C@@H]1c1ccc(O)c(O)c1)c1cc(O)c(O)c(O)c1	> 10 µg/mL	3.45 µg/mL	> 10 µg/mL	> 10 µg/mL	> 10 µg/mL
O=C(O[C@H]1[C@H](O)C[C@](O)(C(=O)O)C[C@H]1O)c1cc(O)c(O)c(O)c1	> 10 µg/mL	> 10 µg/mL	> 10 µg/mL	> 10 µg/mL	> 10 µg/mL
O=C(O[C@@H]1O[C@@H]2COC(=O)c3cc(O)c(O)c(O)c3-c3c(cc(O)c(O)c3O)C(=O)O[C@H]2[C@@H]2OC(=O)c3cc(O)c(O)c(O)c3-c3c(cc(O)c(O)c3O)C(=O)O[C@@H]12)c1cc(O)c(O)c(O)c1	> 10 µg/mL	0.21 µg/mL	> 10 µg/mL	> 10 µg/mL	> 10 µg/mL
O=C(OC[C@H]1O[C@@H](OC(=O)c2cc(O)c(O)c(O)c2)[C@H](OC(=O)c2cc(O)c(O)c(O)c2)[C@@H](O)[C@@H]1O)c1cc(O)c(O)c(O)c1	> 10 µg/mL	> 10 µg/mL	> 10 µg/mL	> 10 µg/mL	> 10 µg/mL
O=C(OC[C@H]1O[C@@H](OC(=O)c2cc(O)c(O)c(O)c2)[C@H](OC(=O)c2cc(O)c(O)c(O)c2)[C@@H](OC(=O)c2cc(O)c(O)c(O)c2)[C@@H]1O)c1cc(O)c(O)c(O)c1	> 10 µg/mL	> 10 µg/mL	> 10 µg/mL	> 10 µg/mL	> 10 µg/mL
O=C(OC[C@H]1O[C@@H](OC(=O)c2cc(O)c(O)c(O)c2)[C@H](O)[C@@H](O)[C@@H]1OC(=O)c1cc(O)c(O)c(O)c1)c1cc(O)c(O)c(O)c1	> 10 µg/mL	> 10 µg/mL	> 10 µg/mL	> 10 µg/mL	> 10 µg/mL
O=C(OC[C@H]1OC(O)[C@@](O)(COC(=O)c2cc(O)c(O)c(O)c2)[C@@H]1OC(=O)c1cc(O)c(O)c(O)c1)c1cc(O)c(O)c(O)c1 (stereo partly specified)	> 10 µg/mL	> 10 µg/mL	> 10 µg/mL	> 10 µg/mL	> 10 µg/mL
O=C1O[C@H]2[C@H](O)[C@@H](CO)OC(O)[C@@H]2OC(=O)c2cc(O)c(O)c(O)c2-c2c1cc(O)c(O)c2O (stereo partly specified)	> 10 µg/mL	> 10 µg/mL	> 10 µg/mL	> 10 µg/mL	> 10 µg/mL
O=C(O[C@@H]1O[C@H](CO)[C@@H](O)[C@H](O)[C@H]1O)c1cc(O)c(O)c(O)c1	> 10 µg/mL	> 10 µg/mL	> 10 µg/mL	> 10 µg/mL	> 10 µg/mL
O=C(O[C@H]1[C@H](O)C[C@](O)(C(=O)O)C[C@H]1OC(=O)c1cc(O)c(O)c(O)c1)c1cc(O)c(O)c(O)c1	> 10 µg/mL	0.53 µg/mL	> 10 µg/mL	> 10 µg/mL	> 10 µg/mL
O=C(OC[C@H]1O[C@@H](O)[C@H](OC(=O)c2cc(O)c(O)c(O)c2)[C@@H](OC(=O)c2cc(O)c(O)c(O)c2)[C@@H]1OC(=O)c1cc(O)c(O)c(O)c1)c1cc(O)c(O)c(O)c1	> 10 µg/mL	> 10 µg/mL	> 10 µg/mL	> 10 µg/mL	> 10 µg/mL
O=C(O)c1cc(O)c(O)c(Oc2cc3c(c(O)c2O)-c2c(cc(O)c(O)c2O)C(=O)OC[C@H]2O[C@@H](OC(=O)c4cc(O)c(O)c(O)c4)[C@H](OC(=O)c4cc(O)c(O)c(O)c4)[C@@H](OC(=O)c4cc(O)c(O)c(O)c4)[C@@H]2OC3=O)c1	> 10 µg/mL	0.44 µg/mL	> 10 µg/mL	> 10 µg/mL	> 10 µg/mL
O=C(O[C@@H]1O[C@@H]2COC(=O)c3cc(O)c(O)c(O)c3-c3c(cc(O)c(O)c3O)C(=O)O[C@H]2[C@@H]2OC(=O)c3cc(O)c(O)c(O)c3-c3c(cc(O)c(O)c3O)C(=O)O[C@@H]12)c1cc(O)c(O)c(Oc2c(O)c(O)c(O)c3c2C(=O)O[C@H]2[C@@H]4OC(=O)c5cc(O)c(O)c(O)c5-c5c(cc(O)c(O)c5O)C(=O)O[C@H]4[C@@H](OC(=O)c4cc(O)c(O)c(Oc5c(O)c(O)c(O)c6c5C(=O)O[C@H]5[C@@H]7OC(=O)c8cc(O)c(O)c(O)c8-c8c(cc(O)c(O)c8O)C(=O)O[C@H]7[C@H](OC(=O)c7cc(O)c(O)c(Oc8c(O)c(O)c(O)c9c8C(=O)O[C@H]8[C@@H]%10OC(=O)c%11cc(O)c(O)c(O)c%11-c%11c(cc(O)c(O)c%11O)C(=O)O[C@H]%10[C@@H](OC(=O)c%10cc(O)c(O)c(O)c%10)O[C@@H]8COC(=O)c8cc(O)c(O)c(O)c8-9)c7)O[C@@H]5COC(=O)c5cc(O)c(O)c(O)c5-6)c4)O[C@@H]2COC(=O)c2cc(O)c(O)c(O)c2-3)c1	> 10 µg/mL	0.5 µg/mL	> 10 µg/mL	> 10 µg/mL	> 10 µg/mL
O=C(OC[C@H]1O[C@@H](OC(=O)c2cc(O)c(O)c(O)c2)[C@H](O)[C@@H](O)[C@@H]1O)c1cc(O)c(O)c(O)c1	> 10 µg/mL	> 10 µg/mL	> 10 µg/mL	> 10 µg/mL	> 10 µg/mL
O=C(O)C1=C[C@@H](OC(=O)c2cc(O)c(O)c(O)c2)[C@@H](O)[C@H](OC(=O)c2cc(O)c(O)c(O)c2)C1	> 10 µg/mL	> 10 µg/mL	> 10 µg/mL	> 10 µg/mL	> 10 µg/mL
Oc1cc(O)c2c(c1)O[C@H](c1ccc(O)c(O)c1)[C@H](O)C2 [(-)-EPICATECHIN]	> 10 µg/mL	> 10 µg/mL	> 10 µg/mL	> 10 µg/mL	> 10 µg/mL
O=C1OC[C@H]2OC(=O)c3cc(O)c(O)c(O)c3-c3c(O)c(O)c(O)c4c3C(=O)O[C@H]([C@@H]3OC(=O)c5c-4c(O)c(O)c(O)c5[C@@H]3c3c(O)cc(O)c4c3O[C@H](c3ccc(O)c(O)c3)[C@@H](O)C4)[C@H]2OC(=O)c2cc(O)c(O)c(O)c2-c2c1cc(O)c(O)c2O [ACUTISSIMIN A]	> 10 µg/mL	0.61 µg/mL	> 10 µg/mL	> 10 µg/mL	> 10 µg/mL
O=C1OC[C@H]2OC(=O)c3cc(O)c(O)c(O)c3-c3c(O)c(O)c(O)c4c3C(=O)O[C@H]([C@H]3OC(=O)c5c-4c(O)c(O)c(O)c5[C@H]3O)[C@@H]2OC(=O)c2cc(O)c(O)c(O)c2-c2c1cc(O)c(O)c2O [CASTALAGIN]	> 10 µg/mL	0.79 µg/mL	> 10 µg/mL	> 10 µg/mL	> 10 µg/mL
CC1(C)CC[C@]2(C(=O)O)CC[C@]3(C)C(=CC[C@@H]4[C@@]5(C)C[C@@H](O)[C@@H]6OC(=O)c7cc(O)c(O)c(O)c7-c7c(cc(O)c(O)c7O)C(=O)OC[C@@]6(CO)[C@@H]5CC[C@]43C)[C@@H]2C1 [CASTANOPSINIIN A]	> 10 µg/mL	> 10 µg/mL	> 10 µg/mL	> 10 µg/mL	> 10 µg/mL
CC1(C)CC[C@]2(C(=O)O[C@@H]3O[C@H](CO)[C@@H](O)[C@H](O)[C@H]3O)CC[C@]3(C)C(=CC[C@@H]4[C@@]5(C)C[C@@H](O)[C@@H]6OC(=O)c7cc(O)c(O)c(O)c7-c7c(cc(O)c(O)c7O)C(=O)OC[C@@]6(CO)[C@@H]5CC[C@]43C)[C@@H]2C1 [CASTANOPSININ A]	> 10 µg/mL	> 10 µg/mL	> 10 µg/mL	> 10 µg/mL	> 10 µg/mL
O=C(O[C@@H]1COC(=O)c2cc(O)c(O)c(O)c2-c2c(cc(O)c(O)c2O)C(=O)O[C@H]1[C@@H]1OC(=O)c2cc(O)c(O)c(O)c2-c2c(O)c(O)c(O)c3c2C(=O)O[C@H]1[C@@H]3O)c1cc(O)c(O)c(O)c1 [CASUARININ]	> 10 µg/mL	2.24 µg/mL	> 10 µg/mL	> 10 µg/mL	> 10 µg/mL
Cc1c2oc3c(C)ccc(C(=O)N[C@@H]4C(=O)N[C@H](C(C)C)C(=O)N5CCC[C@H]5C(=O)N(C)CC(=O)N(C)[C@@H](C(C)C)C(=O)O[C@@H]4C)c3nc-2c(C(=O)N[C@@H]2C(=O)N[C@H](C(C)C)C(=O)N3CCC[C@H]3C(=O)N(C)CC(=O)N(C)[C@@H](C(C)C)C(=O)O[C@@H]2C)c(N)c1=O [DACTINOMYCIN] (I: T[dV]P[Sar][NMeV] / II: T[dV]P[Sar][NMeV]; ester I:1-I:C, II:1-II:C; linker I:N-II:N via Actinocin(1to9))		< 0.01 µg/mL			
